Source: ChEMBL document CHEMBL1149774, “Synthesis of N-(5,7-diamino-3-phenyl-quinoxalin-2-yl)-3,4,5-substituted anilines and N-[4[(5,7-diamino-3-phenylquinoxalin-2-yl)amino]benzoyl]-l-glutamic acid diethyl ester: evaluation of in vitro anti-cancer and anti-folate activities” (Eur J Med Chem, 2008)
Active and inactive are the calls of the source. The calls are words filed in the database; no cut-off is given here.

Legend:
HOP-62 = assay: Growth inhibition of human HOP62 cells after 48 hrs by SRB staining method; format: functional; conditions: HOP-62, 48 h; for TGI: read-out: pTGI (converted)
HOP-92 = assay: Growth inhibition of human HOP92 cells after 48 hrs by SRB staining method; format: functional; conditions: HOP-92, 48 h
NCI-H322M = assay: Growth inhibition of human NCI-H322M cells after 48 hrs by SRB staining method; format: functional; conditions: for TGI: read-out: pTGI (converted)
NCI-H522 = assay: Growth inhibition of human NCI-H522 cells after 48 hrs by SRB staining method; format: functional; conditions: NCI-H522, 48 h; for TGI: read-out: pTGI (converted)
HCT-116 = assay: Growth inhibition of human HCT116 cells after 48 hrs by SRB staining method; format: functional; conditions: HCT-116, 48 h; for TGI: read-out: pTGI (converted)
HT-29 = assay: Growth inhibition of human HT29 cells after 48 hrs by SRB staining method; format: functional; conditions: HT-29, 48 h; for TGI: read-out: pTGI (converted)
KM12 = assay: Growth inhibition of human KM12 cells after 48 hrs by SRB staining method; format: functional; conditions: KM12, 48 h; for TGI: read-out: pTGI (converted)
SF-539 = assay: Growth inhibition of human SF539 cells after 48 hrs by SRB staining method; format: functional; conditions: SF-539, 48 h; for TGI: read-out: pTGI (converted)
SNB-75 = assay: Growth inhibition of human SNB75 cells after 48 hrs by SRB staining method; format: functional; conditions: SNB-75, 48 h
LOX IMVI = assay: Growth inhibition of human LOX IMVI cells after 48 hrs by SRB staining method; format: functional; conditions: for TGI: read-out: pTGI (converted)
M14 = assay: Growth inhibition of human M14 cells after 48 hrs by SRB staining method; format: functional; conditions: M14, 48 h; for TGI: read-out: pTGI (converted)
SK-MEL-28 = assay: Growth inhibition of human SK-MEL-28 cells after 48 hrs by SRB staining method; format: functional; conditions: SK-MEL-28, 48 h; for CC50: read-out: pLC50 (the source's name) (converted); for TGI: read-out: pTGI (converted)
SK-MEL-5 = assay: Growth inhibition of human SK-MEL-5 cells after 48 hrs by SRB staining method; format: functional; conditions: SK-MEL-5, 48 h; for TGI: read-out: pTGI (converted)
OVCAR-3 = assay: Growth inhibition of human OVCAR-3 cells after 48 hrs by SRB staining method; format: functional; conditions: OVCAR-3, 48 h; for TGI: read-out: pTGI (converted)
OVCAR-4 = assay: Growth inhibition of human OVCAR4 cells after 48 hrs by SRB staining method; format: functional; conditions: OVCAR-4, 48 h; for TGI: read-out: pTGI (converted)
SN12C = assay: Growth inhibition of human SN12C cells after 48 hrs by SRB staining method; format: functional; conditions: for CC50: read-out: pLC50 (the source's name) (converted); for TGI: read-out: pTGI (converted)
TK-10 = assay: Growth inhibition of human TK10 cells after 48 hrs by SRB staining method; format: functional; conditions: TK-10, 48 h; for CC50: read-out: pLC50 (the source's name) (converted); for TGI: read-out: pTGI (converted)
[1] = Growth inhibition of human HS 578T cells after 48 hrs by SRB staining method; format: functional; conditions: for CC50: read-out: pLC50 (the source's name) (converted); for TGI: read-out: pTGI (converted)
MDA-MB-435 = assay: Growth inhibition of human MDA-MB-435 cells after 48 hrs by SRB staining method; format: functional; conditions: MDA-MB-435, 48 h; for CC50: read-out: pLC50 (the source's name) (converted); for TGI: read-out: pTGI (converted)
[2] = target: T1, Dihydrofolate reductase (Homo sapiens) (UniProt P00374); assay: Inhibition of human dihydrofolate reductase at 10 uM
T1 sequence (whole entry): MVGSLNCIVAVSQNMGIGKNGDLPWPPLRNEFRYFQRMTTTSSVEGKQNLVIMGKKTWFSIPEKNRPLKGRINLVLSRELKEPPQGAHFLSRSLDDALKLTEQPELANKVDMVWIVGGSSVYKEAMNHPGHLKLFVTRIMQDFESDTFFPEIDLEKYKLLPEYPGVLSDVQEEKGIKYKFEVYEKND

A549 = assay: Growth inhibition of human A549 cells after 48 hrs by SRB staining method; format: functional; conditions: A549, 48 h; for CC50: read-out: pLC50 (the source's name) (converted); for TGI: read-out: pTGI (converted)
SW-620 = assay: Growth inhibition of human SW620 cells after 48 hrs by SRB staining method; format: functional; conditions: SW-620, 48 h; for CC50: read-out: pLC50 (the source's name) (converted); for TGI: read-out: pTGI (converted)
RPMI-8226 = assay: Growth inhibition of human RPMI8226 cells after 48 hrs by SRB staining method; format: functional; conditions: RPMI-8226, 48 h; for CC50: read-out: pLC50 (the source's name) (converted); for TGI: read-out: pTGI (converted)
EKVX = assay: Growth inhibition of human EKVX cells after 48 hrs by SRB staining method; format: functional; conditions: for CC50: read-out: pLC50 (the source's name) (converted); for TGI: read-out: pTGI (converted)
Thymidylate synthase = target: T2, Thymidylate synthase (Lactobacillus casei, UniProt P00469)
T2 sequence (P00469 whole entry): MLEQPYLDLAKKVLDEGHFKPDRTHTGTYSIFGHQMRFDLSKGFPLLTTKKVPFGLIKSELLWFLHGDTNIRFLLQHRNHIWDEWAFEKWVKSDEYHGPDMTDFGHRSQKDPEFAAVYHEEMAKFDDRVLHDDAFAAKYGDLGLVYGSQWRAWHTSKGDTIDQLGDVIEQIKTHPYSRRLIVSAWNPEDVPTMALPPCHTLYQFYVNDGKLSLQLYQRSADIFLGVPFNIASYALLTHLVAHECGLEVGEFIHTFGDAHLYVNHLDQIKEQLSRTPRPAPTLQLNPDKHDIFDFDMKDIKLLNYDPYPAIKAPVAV
Description: Inhibition of Lactobacillus casei thymidylate synthase

HCC 2998 = assay: Growth inhibition of human HCC2998 cells after 48 hrs by SRB staining method; format: functional; conditions: HCC 2998, 48 h

`Nc1cc(N)c2nc(-c3ccccc3)c(Nc3ccc(F)cc3)nc2c1` showed a GI50 (HOP-62) of 38 µM, a TGI (HOP-62) greater than 100 µM and a GI50 (HOP-92) of 13.2 µM. It also gave a TGI (HOP-92; read-out: pTGI (converted)) of 43.7 µM, a GI50 (NCI-H322M) of 17 µM and a TGI (NCI-H322M) of 35.5 µM. For the same molecule, the GI50 (NCI-H522) was greater than 100 µM, the TGI (NCI-H522) was greater than 100 µM and the GI50 (HCT-116) was 20 µM. For the same molecule, the TGI (HCT-116) was greater than 100 µM, the GI50 (HT-29) was 18.6 µM and the TGI (HT-29) was 35.5 µM. For the same molecule, the GI50 (KM12) was 12 µM, the TGI (KM12) was 29.5 µM and the GI50 (SF-539) was 11 µM. The TGI (SF-539) was 24.5 µM, the GI50 (SNB-75) was 20.9 µM and the TGI (SNB-75; read-out: pTGI (converted)) was 41.7 µM. The GI50 (LOX IMVI) was 4.79 µM, the TGI (LOX IMVI) was 18.2 µM and the GI50 (M14) was 16.2 µM. For the same molecule, the TGI (M14) was 43.7 µM, the GI50 (SK-MEL-28) was 20.4 µM and the CC50 (SK-MEL-28) was 75.9 µM. For the same molecule, the TGI (SK-MEL-28) was 38.9 µM, the GI50 (SK-MEL-5) was 14.5 µM and the TGI (SK-MEL-5) was 33.1 µM. It also gave a GI50 (OVCAR-3) of 4.68 µM, a TGI (OVCAR-3) of 17.8 µM and a GI50 (OVCAR-4) of 13.5 µM. For the same molecule, the TGI (OVCAR-4) was 49 µM, the GI50 (SN12C) was 15.8 µM and the CC50 (SN12C) was 74.1 µM. The TGI (SN12C) was 33.9 µM, the GI50 (TK-10) was 17.4 µM and the CC50 (TK-10) was 74.1 µM. The TGI (TK-10) was 35.5 µM, the GI50 [1] was 19.1 µM and the CC50 [1] was greater than 100 µM. The TGI [1] was 58.9 µM, the GI50 (MDA-MB-435) was 7.41 µM and the CC50 (MDA-MB-435) was 50.1 µM. For the same molecule, the TGI (MDA-MB-435) was 20.9 µM, the Activity [2] was “inactive” and the GI50 (A549) was 17.4 µM. It also gave a CC50 (A549) greater than 100 µM, a TGI (A549) of 44.7 µM and a GI50 (SW-620) of 13.5 µM. For the same molecule, the CC50 (SW-620) was greater than 100 µM, the TGI (SW-620) was 38.9 µM and the GI50 (RPMI-8226) was 4.68 µM. It also gave a CC50 (RPMI-8226) greater than 100 µM, a TGI (RPMI-8226) of 34.7 µM and a GI50 (EKVX) of 12 µM. For the same molecule, the CC50 (EKVX) was 75.9 µM, the TGI (EKVX) was 30.2 µM and the Ki (Thymidylate synthase) was 3 µM.
In the case of `COc1ccc(Nc2nc3cc(N)cc(N)c3nc2-c2ccccc2)cc1OC`, the GI50 (HOP-62) is reported as 34.7 µM, the LC50 (HOP-62) is reported as greater than 100 µM and the TGI (HOP-62) is reported as greater than 100 µM. The GI50 (NCI-H322M) was greater than 100 µM, the LC50 (NCI-H322M) was greater than 100 µM and the TGI (NCI-H322M) was 25.1 µM. For the same molecule, the GI50 (NCI-H522) was 28.8 µM, the LC50 (NCI-H522) was greater than 100 µM and the TGI (NCI-H522) was greater than 100 µM. For the same molecule, the GI50 (HCC 2998) was 18.2 µM, the LC50 (HCC 2998) was 85.1 µM and the TGI (HCC 2998; read-out: pTGI (converted)) was 39.8 µM. The GI50 (HCT-116) was 14.8 µM, the LC50 (HCT-116) was 58.9 µM and the TGI (HCT-116) was 29.5 µM. It also gave a GI50 (HT-29) of 25.1 µM, an LC50 (HT-29) greater than 100 µM and a TGI (HT-29) of 52.5 µM. The GI50 (KM12) was 14.8 µM, the LC50 (KM12) was 69.2 µM and the TGI (KM12) was 32.4 µM. The GI50 (SF-539) was 16.2 µM, the LC50 (SF-539) was 87.1 µM and the TGI (SF-539) was 37.2 µM. It also gave a GI50 (LOX IMVI) of 25.7 µM, an LC50 (LOX IMVI) greater than 100 µM and a TGI (LOX IMVI) of 72.4 µM. The GI50 (M14) was 20.9 µM, the LC50 (M14) was greater than 100 µM and the TGI (M14) was 69.2 µM. For the same molecule, the GI50 (SK-MEL-28) was 21.4 µM, the CC50 (SK-MEL-28) was greater than 100 µM and the TGI (SK-MEL-28) was 50.1 µM. The GI50 (SK-MEL-5) was 12.3 µM, the LC50 (SK-MEL-5) was 53.7 µM and the TGI (SK-MEL-5) was 25.7 µM. The GI50 (OVCAR-3) was 30.2 µM, the LC50 (OVCAR-3) was greater than 100 µM and the TGI (OVCAR-3) was greater than 100 µM. It also gave a GI50 (OVCAR-4) of 18.6 µM, an LC50 (OVCAR-4) greater than 100 µM and a TGI (OVCAR-4) of 52.5 µM. The GI50 (SN12C) was 16.6 µM, the CC50 (SN12C) was greater than 100 µM and the TGI (SN12C) was 43.7 µM. It also gave a GI50 (TK-10) of 20.9 µM, a CC50 (TK-10) greater than 100 µM and a TGI (TK-10) of 58.9 µM. For the same molecule, the GI50 [1] was 18.6 µM, the CC50 [1] was greater than 100 µM and the TGI [1] was 50.1 µM. For the same molecule, the GI50 (MDA-MB-435) was 16.2 µM, the CC50 (MDA-MB-435) was 63.1 µM and the TGI (MDA-MB-435) was 32.4 µM. The Activity [2] was “inactive”, the GI50 (A549) was 35.5 µM and the CC50 (A549) was greater than 100 µM. It also gave a TGI (A549) greater than 100 µM, a GI50 (SW-620) of 15.5 µM and a CC50 (SW-620) of 83.2 µM. The TGI (SW-620) was 36.3 µM, the GI50 (RPMI-8226) was 7.94 µM and the CC50 (RPMI-8226) was 87.1 µM. For the same molecule, the TGI (RPMI-8226) was 28.2 µM, the GI50 (EKVX) was 25.7 µM and the CC50 (EKVX) was greater than 100 µM. The TGI (EKVX) was 70.8 µM and the Ki (Thymidylate synthase) was 6 µM.
